These results are taken from article PMC8705783, “The Effect of Conjugation with Octaarginine, a Cell-Penetrating Peptide on Antifungal Activity of Imidazoacridinone Derivative” (International Journal of Molecular Sciences, 2021).

Converted amounts (≈) assume the structure as drawn. Structures can show the parent of a compound that is named as a salt. Some results are limits rather than exact numbers.

Data set [1] relates to Candida albicans Gu4. The data set can be described thus: microbe, parasite or virus in culture.
The subject of data set [2] is Candida albicans B4. Kind of data set: microbe, parasite or virus in culture.
For data set [3], the system named is Candida albicans Gu5. Kind of data set: microbe, parasite or virus in culture.
For data set [4], the system named is C. albicans ATCC 10231. In kind it is cell-based, Candida albicans. Particulars: 1/4 × MIC to 4 × MIC, RPMI medium. The procedure: Killing kinetics analysis was performed as described previously. […] After an appropriate time of incubation, 10 μL was withdrawn and spread on YPG agar plates. The number of colony-forming units (CFUs) was determined after overnight incubation of the plates at 37 °C. The killing kinetics analysis was performed with the GraphPad Prism 8 software (GraphPad Software Inc., San Diego, CA, USA).

Data set [5] relates to Candida albicans F2. The data set can be described thus: microbe, parasite or virus in culture.
In data set [6] the test system is Candida albicans ATCC 10231. The data set can be described thus: microbe, parasite or virus in culture.
Data set [7] deals with Candida albicans B3. Kind of data set: microbe, parasite or virus in culture.
Data set [8] relates to Candida albicans F5. Kind of data set: microbe, parasite or virus in culture.
In data set [9] the test system is Saccharomyces cerevisiae ATCC 9763. Kind of data set: microbe, parasite or virus in culture. Particulars: ATCC9763, 24 h, pH 7.
Data set [10] relates to reference strains. The data set can be described thus: Antifungal activity, summary over reference strains. Particulars: for Antifungal Activity (level): Table 3; for antifungal activity: as reported in Table 1. Set-up: key to Antifungal Activity (level): (−) Means no antifungal activity; (±) low activity; (+) moderate activity; (++) high activity at the concentration mentioned. Type of data set: cell-based.

Data set [11] concerns Candida glabrata ATCC 90030. The data set can be described thus: microbe, parasite or virus in culture. Conditions: Nakaseomyces glabratus, ATCC90030, 24 h, pH 7.
Data set [12] deals with Candida parapsilosis ATCC 22019. The data set can be described thus: microbe, parasite or virus in culture. Particulars: Lodderomyces parapsilosis, ATCC22019, 24 h, pH 7.
Data set [13] deals with Candida krusei ATCC 6258. The data set can be described thus: microbe, parasite or virus in culture. Conditions: Pichia kudriavzevii, ATCC6258, 24 h, pH 7.
For data set [14], the target named is yeast topoisomerase II (Saccharomyces cerevisiae, UniProt P06786). The data set can be described thus: Yeast topoisomerase II relaxation assay. Conditions: supercoiled pBR322, tested at 1-200 μM. Type of data set: biochemical. On the procedure:
Due to the known activity of acridine and acridone derivatives as human topoisomerase inhibitors widely analysed for cancer chemotherapy, we decided to analyse the influence of Compound 1 as well as its R8 conjugate on the fungal equivalent of that enzyme. The relaxation of supercoiled plasmid DNA by yeast topoisomerase II (yTOPO II) was studied in the presence of different concentrations of both compounds.
The inhibition of yeast topoisomerase II was analysed according to the relaxation assay kit from Inspiralis (Inspiralis Limited, Norwich, UK). Briefly, 250 ng of supercoiled pBR322 DNA (Thermo Fisher Scientific, Waltham, MA, USA), 1 mM ATP (Inspiralis Limited, UK), and 1–200 μM of the analysed compound were mixed with reaction buffer (1 mM Tris-HCl (pH 7.9), 10 mM KCl, 0.5 mM MgCl2, 0.2 % (by volume) glycerol). The reaction was initiated by the addition of an enzyme, allowed to proceed at 30 °C for 30 min and terminated by addition of 40% (m/V) sucrose, 100 mM Tris-HCl pH 8, 10 mM EDTA, and 0.5 mg mL^−1 Bromophenol Blue. Two-step extraction with chloroform:isoamyl alcohol (24:1, by volume) and butanol water was performed and mixtures were analysed on 1% agarose gel in 1 × TAE buffer, 3h, 4.5 V cm^−1. Gel was stained in GelRed 3 × staining solution (Biotium, Fremont, CA, USA) for 30 min and photographed with Gel Doc XR+Gel Documentation System (Bio-Rad: Hercules, CA, USA).

Data set [15] has as its system human topoisomerase II. Conditions: cited from earlier work.
Data set [16] has as its system Candida albicans. Set-up: method as in PMID 23563951; key to Antifungal Activity (level): (−) Means no antifungal activity; (±) low activity; (+) moderate activity; (++) high activity at the concentration mentioned. Particulars: cited from earlier work.

Sequence of yeast topoisomerase II (P06786 whole entry): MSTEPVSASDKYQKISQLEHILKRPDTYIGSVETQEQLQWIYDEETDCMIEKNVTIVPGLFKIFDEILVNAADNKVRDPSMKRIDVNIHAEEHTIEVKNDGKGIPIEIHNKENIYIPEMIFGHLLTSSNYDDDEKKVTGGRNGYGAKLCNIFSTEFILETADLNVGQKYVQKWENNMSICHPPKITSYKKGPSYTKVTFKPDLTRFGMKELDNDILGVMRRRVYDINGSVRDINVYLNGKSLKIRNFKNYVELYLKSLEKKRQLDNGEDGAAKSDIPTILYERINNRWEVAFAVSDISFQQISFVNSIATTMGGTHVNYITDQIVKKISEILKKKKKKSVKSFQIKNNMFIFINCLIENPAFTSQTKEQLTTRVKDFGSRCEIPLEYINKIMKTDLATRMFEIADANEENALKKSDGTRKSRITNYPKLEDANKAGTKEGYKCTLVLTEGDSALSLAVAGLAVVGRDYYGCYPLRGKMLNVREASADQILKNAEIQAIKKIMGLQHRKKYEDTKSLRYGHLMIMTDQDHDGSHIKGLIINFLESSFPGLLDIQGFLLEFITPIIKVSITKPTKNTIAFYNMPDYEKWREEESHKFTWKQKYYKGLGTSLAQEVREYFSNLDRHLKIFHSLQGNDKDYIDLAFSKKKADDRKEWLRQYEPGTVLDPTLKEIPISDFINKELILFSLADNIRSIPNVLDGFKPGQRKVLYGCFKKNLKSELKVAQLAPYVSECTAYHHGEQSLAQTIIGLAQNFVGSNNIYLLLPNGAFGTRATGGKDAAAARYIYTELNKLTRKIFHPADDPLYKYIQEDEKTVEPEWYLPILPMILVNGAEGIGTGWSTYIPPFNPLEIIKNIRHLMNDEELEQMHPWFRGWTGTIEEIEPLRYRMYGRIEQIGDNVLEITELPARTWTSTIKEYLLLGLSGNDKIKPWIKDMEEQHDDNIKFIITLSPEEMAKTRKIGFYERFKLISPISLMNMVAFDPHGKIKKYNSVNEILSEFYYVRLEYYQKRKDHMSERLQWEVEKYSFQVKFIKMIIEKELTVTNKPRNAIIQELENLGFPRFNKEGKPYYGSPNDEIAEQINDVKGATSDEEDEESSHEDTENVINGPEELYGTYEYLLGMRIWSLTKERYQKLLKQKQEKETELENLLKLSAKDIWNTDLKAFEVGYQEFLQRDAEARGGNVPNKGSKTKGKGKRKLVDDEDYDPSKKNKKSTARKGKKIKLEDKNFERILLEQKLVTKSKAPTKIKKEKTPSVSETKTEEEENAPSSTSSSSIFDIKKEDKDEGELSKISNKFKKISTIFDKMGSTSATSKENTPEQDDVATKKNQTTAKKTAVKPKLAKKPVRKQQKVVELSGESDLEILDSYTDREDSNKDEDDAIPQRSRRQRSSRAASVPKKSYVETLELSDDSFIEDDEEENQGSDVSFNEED

Take `OC(Cn1cncn1)(Cn1cncn1)c1ccc(F)cc1F` [Fluconazole]: the MIC90 in [1] is 4 µg/mL (≈ 13.1 µM); in [2] it was 16 µg/mL (≈ 52.2 µM); in data set [3], more than 64 µg/mL; in data set [5] it was 8 µg/mL (≈ 26.1 µM); in data set [6] (ATCC10231), 8 µg/mL (≈ 26.1 µM); in data set [7] it was 1 µg/mL (≈ 3.27 µM). In [8], the MIC90 is more than 64 µg/mL. Further, in data set [4], the “killing kinetics, kind of effect” value is reported as “fungistatic”.
On to `CCNCCNc1ccc2nnn3c4ccc(O)cc4c(=O)c1c23` [Compound C-1410, 5-[2′-(Ethyl)-ethylenediamine]-8-hydroxy-6H-[1,2,3]-triazolo[4,5,l-de]acridin-6-one], for which the MIC90 in [9] is more than 64 µg/mL; in data set [6] (ATCC10231, 24 h, pH 7), more than 64 µg/mL; in data set [11], more than 64 µg/mL; in data set [12], more than 64 µg/mL; in data set [13] it was more than 64 µg/mL. Besides, the “Antifungal Activity (level)” value in [10] was “−”. In addition, the “antifungal activity” value in [10] is recorded as “no antifungal activity was observed”.
`NCCNc1ccc2ncn3c4ccc(O)cc4c(=O)c1c23` (as salt: hydrochloride) [Compound 1, 5-((2-Aminoethyl)amino)-8-hydroxy-6H-imidazo[4,5,1-de]acridin-6-one]: the melting point (usually the temperature of the solid-liquid transition) lay in the range of 332 to 334 °C.
The same measure, in the same setting: with `Cc1ccc2c(c1)c(=O)c1c(NCCCN(C)C)ccc3nnn2c31` (as salt: hydrochloride) [Compound C-1296, 5-[-(3′-Dimethylamino)propylamino]-8-methyl-6H-[1,2,3]-triazolo[4,5,l-de]acridin-6-one] the figure was 120 to 122 °C.
Consider `CN(C)CCCNc1ccc2nnn3c4ccc(O)cc4c(=O)c1c23` [Compound C-1305, 5-[-(3′-Dimethylamino)propylamino]-8-hydroxy-6H-[1,2,3]-triazolo[4,5,l-de]acridin-6-one], for which the MIC90 is more than 64 µg/mL in [9]; more than 64 µg/mL in data set [6] (ATCC10231, 24 h, pH 7); more than 64 µg/mL in data set [11]; more than 64 µg/mL in data set [12]; more than 64 µg/mL in [13]. Moreover, in data set [10], the “Antifungal Activity (level)” value is given as “−”. In data set [10], the “antifungal activity” value was “no antifungal activity was observed”. The “concentration that totally inhibited yeast topoisomerase II-mediated relaxation” value in data set [14] was determined as 50 µM. The “concentration that totally inhibited human topoisomerase II-mediated relaxation” value in [15] was 10 µM. For the same molecule, the IC50 in data set [15] (read-out: concentration that diminished the relaxation reaction by 50%) was 2500 nM.
`CCN(CC)CCNc1ccc2ncn3c4ccc(OC)cc4c(=O)c1c23` [Compound C-1330]: in data set [16] (Table 3, activity data published previously ref 8), the “Antifungal Activity (level)” value is on record as “+”. Also, in data set [16], the “antifungal activity” value was “showed phototoxic antifungal activity”.
Molecule `CN(C)CCCNc1ccc2nnn3c4ccc(O)cc4c(=O)c1c23` (as salt: hydrochloride) [Compound C-1305, 5-[-(3′-Dimethylamino)propylamino]-8-hydroxy-6H-[1,2,3]-triazolo[4,5,l-de]acridin-6-one] registered a melting point of 228 to 230 °C.
On to `Cc1ccc2c(c1)c(=O)c1c(NCCCN(C)C)ccc3nnn2c31` [Compound C-1296, 5-[-(3′-Dimethylamino)propylamino]-8-methyl-6H-[1,2,3]-triazolo[4,5,l-de]acridin-6-one], for which the MIC90 in [9] was 32 µg/mL (≈ 95.4 µM); in data set [6] (ATCC10231, 24 h, pH 7) it was more than 64 µg/mL; in data set [11], more than 64 µg/mL; in data set [12], more than 64 µg/mL; in data set [13], more than 64 µg/mL. Besides, the “Antifungal Activity (level)” value in [10] is “±”. Moreover, in data set [10], the “antifungal activity” value was “no antifungal activity was observed”.
Take `CCNCCNc1ccc2nnn3c4ccc(O)cc4c(=O)c1c23` (as salt: hydrochloride) [Compound C-1410, 5-[2′-(Ethyl)-ethylenediamine]-8-hydroxy-6H-[1,2,3]-triazolo[4,5,l-de]acridin-6-one]: the melting point was found to be 300 °C.
